# Measurements from PubChem BioAssay (NCI).
#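 Step 1: Grow cells in 96-well plates. Step 2: Expose to compound for 48 hours at 5 concentrations. Step 3: Interpolate endpoints linearly; if unreached, use highest concentration. Definition used: TGI = concentration required for complete inhibition of growth.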
# What was measured:
# Assay in all cases: NCI tumour cell line growth inhibition, 48 h
# 786-0 renal = test system: 786-0 renal
# BT-549 breast = test system: BT-549 breast
# CAKI-1 renal = test system: CAKI-1 renal
# CCRF-CEM leukemia = test system: CCRF-CEM leukemia
# HCC-2998 colon = test system: HCC-2998 colon
# HCT-15 colon = test system: HCT-15 colon
# HOP-92 NSCLC = test system: HOP-92 NSCLC
# KM12 colon = test system: KM12 colon
# M14 melanoma = test system: M14 melanoma
# MCF7 breast = test system: MCF7 breast
# MDA-MB-231 breast = test system: MDA-MB-231 breast
# OVCAR-4 ovarian = test system: OVCAR-4 ovarian
# RXF 393 renal = test system: RXF 393 renal
# SF-295 CNS = test system: SF-295 CNS
# SK-MEL-5 melanoma = test system: SK-MEL-5 melanoma
# SK-OV-3 ovarian = test system: SK-OV-3 ovarian
# SNB-19 CNS = test system: SNB-19 CNS
# UO-31 renal = test system: UO-31 renal
# SR leukemia = test system: SR leukemia
SMILES,TGI (786-0 renal),TGI (BT-549 breast),TGI (CAKI-1 renal),TGI (CCRF-CEM leukemia),TGI (HCC-2998 colon),TGI (HCT-15 colon),TGI (HOP-92 NSCLC),TGI (KM12 colon),TGI (M14 melanoma),TGI (MCF7 breast),TGI (MDA-MB-231 breast),TGI (OVCAR-4 ovarian),TGI (RXF 393 renal),TGI (SF-295 CNS),TGI (SK-MEL-5 melanoma),TGI (SK-OV-3 ovarian),TGI (SNB-19 CNS),TGI (UO-31 renal),TGI (SR leukemia)
CC(=O)Nc1ccc2c3c(cc(O)c2c1)N(C(=O)CCCC(=O)Nc1ccc2c4c(cc(O)c2c1)N(C(=O)OC(C)(C)C)CC4CCl)CC3CCl (stereo not given),> 13.1 µM,3.75 µM,> 50 µM,0.599 µM,1.91 µM,> 50 µM,> 15.1 µM,22.7 µM,13.2 µM,> 16.3 µM,3.74 µM,6.4 µM,10.6 µM,> 42.9 µM,> 11.6 µM,> 15.6 µM,> 15 µM,> 50 µM,–
CN(C)C(=S)N/N=C\C(=N/NC(=S)N(C)C)c1ccccc1,> 100 µM,> 100 µM,> 100 µM,–,> 100 µM,> 100 µM,92.1 µM,> 100 µM,> 100 µM,> 38.8 µM,> 100 µM,> 100 µM,> 27.8 µM,> 100 µM,> 100 µM,> 100 µM,> 100 µM,> 100 µM,–
CC(C)(C)[Si](C)(C)OCC1OC(n2cc(F)c(=O)[nH]c2=O)CC1O[Si](C)(C)C(C)(C)C (stereo not given),20.9 µM,17 µM,25.6 µM,10.2 µM,3.48 µM,20.4 µM,–,14.7 µM,30.9 µM,24.9 µM,22 µM,17.4 µM,16.2 µM,21.4 µM,17.1 µM,28.3 µM,25.3 µM,23 µM,7.08 µM
COc1ccc(OC)c(C2CCCc3c2cnc2nc(N)nc(N)c32)c1 (stereo not given),> 100 µM,> 100 µM,> 100 µM,> 100 µM,–,> 100 µM,> 100 µM,> 100 µM,> 100 µM,0.017 µM,> 100 µM,> 100 µM,–,> 100 µM,> 100 µM,> 100 µM,> 100 µM,> 100 µM,> 100 µM
CC1(C)CC(=O)C(CC(C(=O)C(=O)Nc2cc(C(F)(F)F)ccc2Cl)C(=O)c2ccco2)C(=O)C1 (stereo not given),> 100 µM,> 100 µM,> 100 µM,> 100 µM,> 100 µM,> 100 µM,> 100 µM,> 100 µM,> 100 µM,> 100 µM,> 100 µM,> 100 µM,–,> 100 µM,> 100 µM,> 100 µM,> 100 µM,> 100 µM,–
CCN(CC)CCCC(C)NC(=O)c1cc(-c2nccn2C)nc2ccc(C)cc12 (stereo not given),> 100 µM,> 100 µM,> 100 µM,–,> 100 µM,> 100 µM,> 100 µM,> 100 µM,> 100 µM,> 100 µM,> 100 µM,> 100 µM,> 100 µM,–,> 100 µM,–,> 100 µM,> 100 µM,–
CC1CC(=O)N2CCCNC2=C1C#N (stereo not given),> 100 µM,> 100 µM,> 100 µM,> 100 µM,> 100 µM,> 100 µM,–,> 100 µM,> 100 µM,> 100 µM,> 100 µM,> 100 µM,> 100 µM,> 100 µM,> 100 µM,> 100 µM,> 100 µM,> 100 µM,> 100 µM
CC(C)(C)c1ccc(-c2nc3ccccc3c(=O)o2)cc1,> 100 µM,91 µM,> 100 µM,44.2 µM,85.5 µM,> 100 µM,> 100 µM,> 100 µM,> 100 µM,62.2 µM,–,> 100 µM,> 100 µM,> 100 µM,38.2 µM,> 100 µM,> 100 µM,> 100 µM,54.2 µM
NC(=O)Cc1ncn(-c2ccccc2)n1,> 100 µM,> 100 µM,> 100 µM,> 100 µM,–,> 100 µM,> 100 µM,> 100 µM,> 100 µM,> 100 µM,> 100 µM,–,> 100 µM,> 100 µM,> 100 µM,> 100 µM,> 100 µM,> 100 µM,> 100 µM
COc1cc(C2SCC(=O)N2c2ccc(-c3ccc(-n4c(-c5ccccc5)nc5ccccc5c4=O)cc3)cc2)ccc1O (stereo not given),> 100 µM,> 100 µM,> 100 µM,> 100 µM,> 100 µM,> 100 µM,74.1 µM,> 100 µM,> 100 µM,> 100 µM,> 100 µM,> 100 µM,–,> 100 µM,> 100 µM,> 100 µM,> 100 µM,> 100 µM,–
Cc1nc2c(=O)[nH]c3ccccc3c2o1,> 100 µM,> 100 µM,> 100 µM,> 100 µM,> 100 µM,> 100 µM,> 100 µM,> 100 µM,> 100 µM,> 100 µM,> 100 µM,> 100 µM,> 100 µM,> 100 µM,> 100 µM,> 100 µM,> 100 µM,> 100 µM,–
CC(=O)c1c2c(cc3c1CC1(Cc4cc5c(cc4C1=O)CCC5)C3)CCC2 (stereo not given),> 100 µM,> 100 µM,> 100 µM,> 73.7 µM,> 100 µM,> 100 µM,–,> 100 µM,> 100 µM,> 100 µM,> 100 µM,> 100 µM,–,> 100 µM,> 69.4 µM,> 100 µM,> 100 µM,> 100 µM,> 100 µM
O=C(Cn1c(C(=O)/C=C/c2ccco2)nc2ccccc21)c1ccc(Cl)cc1,31.4 µM,42.9 µM,–,27.4 µM,33.6 µM,99.4 µM,> 100 µM,47.1 µM,58.2 µM,76.4 µM,59.8 µM,65 µM,> 100 µM,–,97.1 µM,> 100 µM,> 100 µM,94.3 µM,16.4 µM
CSc1c(CC(=O)O)n(Cc2ccccc2)c2ccccc12,> 100 µM,> 100 µM,> 100 µM,> 100 µM,–,> 100 µM,> 100 µM,> 100 µM,> 100 µM,> 100 µM,> 100 µM,> 100 µM,> 100 µM,> 100 µM,> 100 µM,> 100 µM,> 100 µM,> 100 µM,> 100 µM
CC/C(Cl)=N\OC(=O)Nc1ccccc1OC(F)(F)F,23.5 µM,11.5 µM,3.33 µM,3.42 µM,37.8 µM,> 24.2 µM,6.15 µM,41.6 µM,23.3 µM,> 51.3 µM,34.2 µM,41.6 µM,32.6 µM,33.5 µM,22.1 µM,37.3 µM,53.9 µM,18.2 µM,–
CC1=Nc2nc3ccccc3n2C(C)(C)C1,> 100 µM,> 100 µM,> 100 µM,> 100 µM,–,> 100 µM,> 100 µM,> 100 µM,> 100 µM,> 100 µM,> 100 µM,> 100 µM,> 100 µM,> 100 µM,> 100 µM,> 100 µM,> 100 µM,> 100 µM,> 100 µM
COC(=O)C1=C(C(=O)OC)SC(=C2c3ccsc3-c3sccc32)S1,56.8 µM,> 100 µM,> 100 µM,> 100 µM,> 100 µM,> 100 µM,–,> 100 µM,> 100 µM,> 100 µM,> 100 µM,–,41.6 µM,53.5 µM,> 100 µM,49.3 µM,> 100 µM,> 100 µM,> 100 µM
Oc1ccc(-c2c3ccccc3c(-c3ccc(OCCBr)cc3)c3ccccc23)cc1,44.5 µM,57.4 µM,67.1 µM,> 100 µM,> 100 µM,77.4 µM,–,83.6 µM,37 µM,32 µM,44.6 µM,58.3 µM,64.3 µM,32.7 µM,36.3 µM,> 100 µM,84.3 µM,> 100 µM,92.6 µM
CCOC(=O)N1CC2(C(=O)OC)C=CC1C(C(=O)OC)C2 (stereo not given),> 100 µM,> 100 µM,> 100 µM,> 100 µM,> 100 µM,> 100 µM,–,> 100 µM,> 100 µM,> 100 µM,> 100 µM,> 100 µM,> 100 µM,> 100 µM,> 100 µM,> 100 µM,> 100 µM,> 100 µM,> 100 µM
O=C1C=C(c2c(-c3ccccc3)[nH]c3ccccc23)C(=O)N1c1ccccc1,21.1 µM,24.1 µM,25.7 µM,49.4 µM,20.8 µM,23.8 µM,30.6 µM,–,30.4 µM,–,25.6 µM,–,15.2 µM,25.3 µM,20.9 µM,> 100 µM,66.1 µM,28.9 µM,–
OC(c1ccc(F)cc1)C(F)(F)c1nc(-c2ccccc2)no1 (stereo not given),44.2 µM,36.8 µM,72.1 µM,52.2 µM,–,63 µM,91.9 µM,–,32.7 µM,50.3 µM,42.8 µM,41.5 µM,–,–,–,–,64.2 µM,35.4 µM,–
Cc1ccc(-c2c(C#N)c(-c3ccc([N+](=O)[O-])cc3)c(C#N)c(=O)n2NS(=O)(=O)c2ccc(C)cc2)cc1,> 100 µM,> 100 µM,> 100 µM,73.2 µM,> 100 µM,> 100 µM,> 100 µM,> 100 µM,> 100 µM,> 100 µM,> 100 µM,> 100 µM,> 100 µM,> 100 µM,48.7 µM,> 100 µM,> 100 µM,–,–
Cc1[nH]c2ncn3ncnc3c2c1Cc1ccccc1,> 100 µM,> 100 µM,> 100 µM,> 100 µM,> 100 µM,> 100 µM,> 100 µM,> 100 µM,> 100 µM,> 100 µM,> 100 µM,> 100 µM,> 100 µM,> 100 µM,> 100 µM,> 100 µM,> 100 µM,> 100 µM,–
COc1ccc(C2=NN(C(=O)c3ccccc3)C(O)(c3cc(F)c(Cl)cc3Cl)C2)cc1OC (stereo not given),> 100 µM,> 100 µM,> 100 µM,> 100 µM,> 100 µM,> 100 µM,78.9 µM,> 100 µM,> 100 µM,> 100 µM,> 100 µM,53.1 µM,55.5 µM,> 100 µM,> 100 µM,48.8 µM,> 100 µM,89.4 µM,–
CC1=NN(c2nc(N)nc(C(C)Sc3cc(Cl)c(C)cc3S(N)(=O)=O)n2)C(C)(C)C1 (stereo not given),> 10 µM,> 10 µM,> 10 µM,> 10 µM,> 10 µM,> 10 µM,> 10 µM,> 10 µM,> 10 µM,> 10 µM,–,> 10 µM,> 10 µM,> 10 µM,> 10 µM,> 10 µM,> 10 µM,> 10 µM,> 10 µM
SC[C@@H]1COC[C@H](CS)S1,> 100 µM,> 100 µM,–,> 100 µM,> 100 µM,> 100 µM,–,> 100 µM,> 100 µM,> 100 µM,> 100 µM,> 100 µM,–,> 100 µM,> 100 µM,> 100 µM,> 100 µM,> 100 µM,> 100 µM
Cn1c(=O)oc2cc(C(=S)N3CCC(Cc4ccccc4)CC3)ccc21,> 100 µM,> 100 µM,> 100 µM,> 100 µM,–,> 100 µM,–,> 100 µM,> 100 µM,> 100 µM,> 100 µM,–,> 100 µM,> 100 µM,> 100 µM,> 100 µM,> 100 µM,–,> 100 µM
